Source: patent US20120029078A1, “COMPOSITIONS COMPRISING MYRISTIC ACID AND USES THEREOF” (IMAGENETIX, INC., priority 2010, published 2012)

What was measured:
IL-8 = assay: LPS-activated cytokine release from human primary monocytes (xMAP Luminex): IL-8; format: cell-based; details: 24 hours
Protocol: (§1) Cytokine release from monocytes was measured and assessed in order to determine the anti-inflammatory effects of cetylated fatty acids such as 1-TDC and non-cetylated fatty acids such as myristic acid. Human primary monocytes were provided by healthy subjects (n=7) who were not taking medication, had no medical condition, and no periodontal or gingival inflammation. None of the subjects were smokers and all subjects were of Caucasian origin with an age range of 24-51 years old. All patient samples were obtained after the approval of the Institutional Review Board at Boston University Medical Center.
(§2) Fresh peripheral venous blood ([…]) was obtained by venipuncture into heparinized (10 U/mL) glass tubes. Monocytes were isolated using Ficoll-Hypaque density gradient centrifugation and separated from the other mononuclear cells (e.g., lymphocytes) by adherence for over 2 hours. Pure cell cultures were treated with various doses (10^−5-10^−9 M) of various types of fatty acids such as 1-TDC and myristic acid for 30 minutes. […] Supernatants were collected and stored at −80° C. until analyzed. […] Cytokine release (IL-1β, TNF-α, IL-6, IL-12, IL-8, and MCP-1) was analyzed by xMAP multiplexing technology using Luminex 100 Platform. […]

MCP-1 = assay: LPS-activated cytokine release from human primary monocytes (xMAP Luminex): MCP-1; format: cell-based
Protocol: as §1
(§3) Fresh peripheral venous blood ([…]) was obtained by venipuncture into heparinized (10 U/mL) glass tubes. Monocytes were isolated using Ficoll-Hypaque density gradient centrifugation and separated from the other mononuclear cells (e.g., lymphocytes) by adherence for over 2 hours. Pure cell cultures were treated with various doses (10^−5-10^−9 M) of various types of fatty acids such as 1-TDC and myristic acid for 30 minutes. Vehicle (5% ethyl alcohol), which was used to dissolve the compound into an aqueous preparation, was used as the negative control while dexamethasone (1 nM) was used as the positive control. After incubation with the test compound, half of the samples were treated with LPS from E. coli (100 ng/mL) as the activator of cell cytokine release over various time points (24 hours) at 37° C. under 5% CO2. Supernatants were collected and stored at −80° C. until analyzed. Each sample was prepared in triplicate. Cytokine release (IL-1β, TNF-α, IL-6, IL-12, IL-8, and MCP-1) was analyzed by xMAP multiplexing technology using Luminex 100 Platform. Data was presented as % inhibition over the vehicle's effect of LPS-mediated cell activation. Dexamethasone inhibition was taken as 100% inhibition.
(§4) Cytokine release data were gathered at 6, 24, and 48 hour time points for monocyte/macrophages (FIGS. 3-5). Each experiment was repeated at least 3 times and data was presented as percentage of inhibition over the vehicle's effect of LPS-mediated cell activation.

IL-5 = assay: CD3/CD28-activated cytokine release from human primary T-lymphocytes: IL-5; format: cell-based; details: 24 and 48 hours; FIG. 11
Protocol: (§5) Cytokine release from T-lymphocytes was measured and assessed in order to determine the anti-inflammatory effects of cetylated fatty acids such as 1-TDC and uncetylated fatty acids such as myristic acid. More specifically, the following compounds were tested: 1-TDC, 2-TDC, cetyl myristate (CM), myristic acid (MA), palmityl myristate (PM), palmityl oleate (PO), and palmityl myristoleate (PMO). For this experiment, peripheral blood mononuclear cells were isolated from healthy donors (n=8) with no known medication use by Ficoll-Hypaque density gradient centrifugation. Primary T-lymphocytes were separated from other mononuclear cells (e.g., monocytes) by negative selection using magnetic cell sorting (Dynal, Invitrogen) and pure cell cultures were treated with various doses of tested compounds for 30 minutes. The tested doses were 10^−5-10^−9M. […] Supernatants were collected at 24 and 48 hours and were stored at −80° C. until analyzed. […] The cytokine release was analyzed by xMAP multiplexing technology using Luminex 100 platform. […] The following T-lymphocyte associated cytokines: IFN-γ, IL-2, IL-10, IL-5, and IL-4 were assessed. […] While the validity of this shift is questioned in different diseases and/or infections, the central role of T cells in the progression of inflammation is still evaluated on the cytokine release by these subsets of lymphocytes. […]

IFN-γ = assay: CD3/CD28-activated cytokine release from human primary T-lymphocytes: IFN-γ; format: cell-based; details: FIG. 7
Protocol: Cytokine release from T-lymphocytes was measured and assessed in order to determine the anti-inflammatory effects of cetylated fatty acids such as 1-TDC and uncetylated fatty acids such as myristic acid. More specifically, the following compounds were tested: 1-TDC, 2-TDC, cetyl myristate (CM), myristic acid (MA), palmityl myristate (PM), palmityl oleate (PO), and palmityl myristoleate (PMO). For this experiment, peripheral blood mononuclear cells were isolated from healthy donors (n=8) with no known medication use by Ficoll-Hypaque density gradient centrifugation. Primary T-lymphocytes were separated from other mononuclear cells (e.g., monocytes) by negative selection using magnetic cell sorting (Dynal, Invitrogen) and pure cell cultures were treated with various doses of tested compounds for 30 minutes. The tested doses were 10^−5-10^−9M. Vehicle, which was used to dissolve the compounds into an aqueous preparation, was used as the negative control while dexamethasone (1 nM) was used as the positive control. After the incubation with test compounds, half the samples were treated with DynaBeads (Dynal, Invitrogen) coated with CD3 and CD28 antibodies as the activator of cell cytokine release. Cells were incubated over various time points at 37° C. under 5% CO2. Supernatants were collected at 24 and 48 hours and were stored at −80° C. until analyzed. Each sample was prepared in triplicates. The cytokine release was analyzed by xMAP multiplexing technology using Luminex 100 platform. This method allowed simultaneous analyses of all the cytokines proposed in this experiment. The following T-lymphocyte associated cytokines: IFN-γ, IL-2, IL-10, IL-5, and IL-4 were assessed. […] A paradigm shift between the cytokines by Th1 and Th2 indicates a more or less inflammatory process depending on which of these cytokines are increased. While the validity of this shift is questioned in different diseases and/or infections, the central role of T cells in the progression of inflammation is still evaluated on the cytokine release by these subsets of lymphocytes. Data was gathered throughout 24- and 48-hour time points for T-lymphocyte mediated release. Each experiment was repeated at least 3 times and data was presented as %-inhibition over the vehicle's effect of LPS-mediated cell activation.

IL-4 = assay: CD3/CD28-activated cytokine release from human primary T-lymphocytes: IL-4; format: cell-based; details: 24 and 48 hours; FIG. 10
Protocol: as §5

TNF-α = assay: LPS-activated cytokine release from human primary monocytes (xMAP Luminex): TNF-α; format: cell-based
Protocol: as §1, §3, §4

IL-10 = assay: CD3/CD28-activated cytokine release from human primary T-lymphocytes: IL-10; format: cell-based; details: 24 and 48 hours; FIG. 9
Protocol: as §5

P. gingivalis A7436 = assay: Antibacterial activity: viability of P. gingivalis by Live/Dead BacLight staining and flow cytometry; format: cell-based, Porphyromonas gingivalis; details: for antibacterial capacity (percentage of dead bacteria) compared with chlorhexidine: FIG. 1, positive control chlorhexidine (CHX) 0.04%
Protocol: P. gingivalis A7436 was cultured on laced blood paromomycin agar plates and then transferred to Schaedler's broth. All cultures were grown at 37° C. under anaerobic conditions. In order to dissolve the 1-TDC and MA in an aqueous medium that can be utilized in carrying out the experiments, the following ingredients were used: ethanol (EtOH) and Methyl-β-cyclodextrin (Sigma-Aldrich, St. Louis, Mo.). More specifically, 750.0 mg of Methyl-β-cyclodextrin was dissolved in 5.0 mL of nano-pure water to get a concentration 150.0 mg/mL (MBC). The MBC solution was stored in the refrigerator at a temperature of 4° C. and was returned to room temperature before use. MA was prepared by dissolving 90.0 mg in 3.0 mL of ETOH, 2.4 mL of MBC, and 24.6 mL of SB in a sterile tube. The entire mixture was placed in a hot bath at 30° C. for 30 minutes. The final concentration of MA was 3.0 mg/mL.
2×10^7 cells were transferred to 5 mL culture tubes and treated with either 1-TDC or MA (1.0 mg/ml, 0.7 mg/mL, 0.5 mg/mL, 0.3 mg/mL, 0.1 mg/mL) or corresponding vehicle concentrations. A negative control was treated with additional Schaedler's broth. Tubes were incubated in anaerobic jars at 37° C. for several time points between 4-72 hours.
After incubation, viability of the P. gingivalis cells was assessed. 1 mL of each sample was removed and spun down. Bacteria were resuspended in 1 mL of 0.85% NaCl solution. To generate a standard curve, half of the bacteria that was not treated with vehicle or compound were heat-killed for one hour and then mixed with live cells in known proportions (0%, 25%, 50%, 75% and 100% alive). The 100% live cells were used as the negative control. To assess the viability, a fluorescent based kit was used. Live/Dead BacLight Bacterial Viability Kit (Invitrogen L7012) allows for differentiation between alive and dead bacteria at a highly accurate and sensitive way. […]
Samples were then run on the flow cytometer (FACScan). […] From these established regions, percent viability of the experimental samples were determined.

IL-1β = assay: LPS-activated cytokine release from human primary monocytes (xMAP Luminex): IL-1β; format: cell-based; details: 24 hours
Protocol: as §1, §3, §4

IL-2 = assay: CD3/CD28-activated cytokine release from human primary T-lymphocytes: IL-2; format: cell-based; details: 24 hour period; FIG. 8
Protocol: as §5

IL-6 = assay: LPS-activated cytokine release from human primary monocytes (xMAP Luminex): IL-6; format: cell-based; details: 24 hours
Protocol: as §1, §2

[1] = system: periodontal disease established by P. gingivalis; assay: Rabbit periodontal disease established by P. gingivalis, topical treatment; format: in vivo, New-Zealand White rabbits
Excerpt: Fifteen New-Zealand White rabbits are distributed into 3 groups: (1)
No treatment (5 animals), (2) Placebo treatment (5 animals), and (3) myristic acid treatment (5 animals). In all animals, periodontal disease is established by P. gingivalis application every-other-day over a 6-week period. At 6 weeks, P. gingivalis application is terminated and topical use of the myristic acid and placebo agents is initiated for a second 6 weeks at which time animals are sacrificed. Morphometric, radiographic, and histologic evaluations are performed. Histologic sections are stained with hematoxylin-eosin, and tartrate-resistant acid phosphatase (TRAP) for descriptive histology and osteoclast activity. In addition, osteocalcin staining is used to detect osteoblast activity.

IL-12 = assay: LPS-activated cytokine release from human primary monocytes (xMAP Luminex): IL-12; format: cell-based; details: 24 hours
Protocol: as §1, §2

CCCCCCCCCCCCCCCCOC(=O)CCCCCCCCCCCCC [Cetyl Myristate, cetyl myristate]
monocyte-mediated IL-8 release, inhibition (IL-8): inhibited
monocyte-mediated MCP-1 release, inhibition (MCP-1; 6 hours): inhibited
monocyte-mediated MCP-1 release, inhibition (MCP-1; 24 hours): inhibited
IL-5 release by human T cells (activation) (IL-5): most potent activator
dose dependence of activation of T-cell IFN-γ release (IFN-γ; 10^−5-10^−9M): dose-dependent activation
IL-4 generation by human T cells (activation) (IL-4): most potent compound tested
monocyte-mediated TNF-α release, inhibition (text) (TNF-α; 6 hours): inhibits
monocyte-mediated TNF-α release, inhibition (text) (TNF-α; 24 hours, listed as Cetyl myristate): inhibition on TNF-α continued
T-lymphocyte release of IL-10 (activation) (IL-10): most potent activator

CCCCCCCCCCCCCC(=O)[O-].[Na+] [sodium myristate]
antibacterial capacity (percentage of dead bacteria) compared with chlorhexidine (P. gingivalis A7436): comparable level of antibacterial capacity as seen with chlorhexidine

CCCCCCCC/C=C\CCCCCCCC(=O)OCCCCCCCCCCCCCCCC [Palmityl Oleate, palmityl oleate]
monocyte-mediated IL-1β release, inhibition (IL-1β): significantly and fully inhibited
effect on IFN-γ production by T-lymphocytes (IFN-γ; 24 hour mark): inhibit
monocyte-mediated TNF-α release, inhibition (text) (TNF-α; 24 hours): significantly and fully inhibited

CCCCCCCCCCCCCCCCOC(=O)CCCCCCCCCCCCC [Palmityl Myristate, palmityl myristate]
monocyte-mediated TNF-α release, inhibition (text) (TNF-α; 24 hours, listed as palmityl myristate): blocked TNF-α release, however the inhibition was weaker compared to cetyl myristate

CCCC/C=C\CCCCCCCC(=O)OCCCCCCCCCCCCCCCC [Palmityl Myristoleate, palmityl myristoleate]
monocyte-mediated IL-1β release, inhibition (IL-1β): significantly and fully inhibited
effect on IFN-γ production by T-lymphocytes (IFN-γ; 24 hour mark): inhibit
effect on IFN-γ production by T-lymphocytes (IFN-γ; 48 hour mark): inhibit
monocyte-mediated TNF-α release, inhibition (text) (TNF-α; 24 hours): significantly and fully inhibited

CCCCCCCCCCCCCC(=O)O [Myristic Acid, Myristic acid]
monocyte-mediated IL-1β release, inhibition (IL-1β): significantly and dose dependently inhibited
monocyte-mediated IL-8 release, inhibition (IL-8): significantly and dose dependently inhibited
effect on T-lymphocyte IL-2 production (IL-2): activated
monocyte-mediated MCP-1 release, inhibition (MCP-1; 24 hours): significantly and dose dependently inhibited
activation of IFN-γ release by T-lymphocytes (IFN-γ; over 24 and 48 hours): capacity to activate IFN-γ release by T cells and this effect increased over time
monocyte-mediated IL-6 release, inhibition (IL-6): significantly and dose dependently inhibited
antibacterial capacity (percentage of dead bacteria) compared with chlorhexidine (P. gingivalis A7436): comparable level of antibacterial capacity as seen with chlorhexidine
dose dependence of antibacterial activity against P. gingivalis (P. gingivalis A7436; FIG. 2, increases dramatically at 0.1 mg/ml and higher doses (e.g., 1 mg/ml)): dose-dependent
histomorphometric tissue and bone level vs placebo and no treatment ([1]; 6 weeks): significant changes in tissue and bone level
inflammatory changes in hematoxylin-eosin stained sections ([1]; 6 weeks): complete reversal of inflammatory changes
reformation of soft and bone tissues lost to periodontal inflammation ([1]; 6 weeks): reform soft and bone tissues
progression of gingival inflammation and bone destruction induced by P. gingivalis ([1]; 6 weeks after 6 weeks of disease induction): stops the progression
osteoclastic activity ([1]; 6 weeks, TRAP staining): significantly suppresses
osteoblastic activity ([1]; 6 weeks, osteocalcin staining): increased osteoblastic activity
monocyte-mediated TNF-α release, inhibition (text) (TNF-α; 24 hours): all cytokines except TNF-α
monocyte-mediated IL-12 release, inhibition (IL-12): significantly and dose dependently inhibited
